From patent publication US9504676B2, “Molecules inhibiting a metabolic pathway involving the Syk protein tyrosine kinase and method for identifying said molecules” (CENTRE NATIONAL DE LA RECHERCHE SCIENTIFIQUE, priority 2008, dated 2016)

Tested on: Btk
Assay: Phosphorylation and FcεRI-induced kinase activity of Btk in RBL-2H3 cells
Format: cell-based, rat
Text: To examine the functional similarities with G4G11, the inventors explored the biological effects of C-13 on mast cell activation. […] Similarly to the intrabody G4G11, C-13 inhibited the phosphorylation and FcεRI-induced kinase activity of Btk (FIG. 2A) and the phosphorylation of PLC-γ1 and PLC-γ2, the two PLC-γ isoforms expressed in mast cells (FIGS. 2A, C). PTK Lyn phosphorylates both Syk and Btk giving rise to the complete activation thereof and the subsequent phosphorylation of PLC-γ^18.
• 1) Chemical products and antibodies. A chemical bank of 3000 molecules (a varied subset) was acquired from ChemBridge, Inc. (San Diego, Calif.). Stocks of solutions of small molecules were prepared at a rate of 10 mM in DMSO (dimethylsulphoxide), except for C-13 (methyl 2-{5-[(3-benzyl-4-oxo-2-thioxo-1,3-thiazolidin-5-ylidene)methyl]-2-furyl}benzoate, ChemBridge ID No. 6197026) prepared in DMF (dimethylformamide). […] The binding of G4G11 with Syk was assessed by adding the 9E10 monoclonal antibody conjugated with HRP detecting the amino acid sequence EQKLISEEDLN of human c-myc protein located at the C-terminal end of the scFv fragment. To generate Syk mutants, targeted mutagenesis was used on GST:Syk 6-242 protein and the binding of G4G11 with the mutants was assessed in the presence of 5 μM of C-13. • 3) Cells, culture conditions and functional tests. […]

SMILES: COC(=O)c1ccccc1-c1ccc(/C=C2/SC(=S)N(Cc3ccccc3)C2=O)o1 [Molecule C-13, methyl 2-{5-[(3-benzyl-4-oxo-2-thioxo-1,3-thiazolidin-5-ylidene)methyl]-2-furyl}benzoate]
- phosphorylation and FcεRI-induced kinase activity of Btk: inhibited
